One series deals with METTL3 (Homo sapiens (Human), UniProt Q86U44). Briefly: TR-FRET biochemical assay (time resolved-Förster resonance energy transfer). Conditions: for LLE (lipophilic ligand efficiency, pIC50-logP): calculated with DataWarrior; for potency reduction / loss: relative to parent compound. The source says:
The bonds formed are depicted in red. The IC50 values refer to the biochemical assay based on time resolved-Forster resonance energy transfer (TR-FRET). B) Superimposition of compounds 1 (grey, from X-ray with METTL3, PDB code: 7NHI) and 2 (cyan, drawn in Pymol).

For series [1] the following is noted: Rat liver microsomes. (In general: Liver microsomes are a subcellular fraction often used to study metabolism.)
A further series in a line: in vitro. Conditions: rat, microsomes.
Another series has as its target METTL3/METTL14 (Homo sapiens (Human), UniProt Q86U44). As to the kind of experiment: Protein thermal shift assay, METTL3/METTL14. Particulars: read-out: ΔTm.
[2] abbreviates: IC50 data for N6-adenosine-methyltransferase.

This is an account of results in patent US20240139189A1, “N6-ADENOSINE-[…] INHIBITORS IN CANCER TREATMENT” (priority 2021, published 2024).

Structures are written as SMILES. Converted amounts (≈) assume the structure as drawn.

Chain of METTL3 (Q86U44 whole entry, looked up): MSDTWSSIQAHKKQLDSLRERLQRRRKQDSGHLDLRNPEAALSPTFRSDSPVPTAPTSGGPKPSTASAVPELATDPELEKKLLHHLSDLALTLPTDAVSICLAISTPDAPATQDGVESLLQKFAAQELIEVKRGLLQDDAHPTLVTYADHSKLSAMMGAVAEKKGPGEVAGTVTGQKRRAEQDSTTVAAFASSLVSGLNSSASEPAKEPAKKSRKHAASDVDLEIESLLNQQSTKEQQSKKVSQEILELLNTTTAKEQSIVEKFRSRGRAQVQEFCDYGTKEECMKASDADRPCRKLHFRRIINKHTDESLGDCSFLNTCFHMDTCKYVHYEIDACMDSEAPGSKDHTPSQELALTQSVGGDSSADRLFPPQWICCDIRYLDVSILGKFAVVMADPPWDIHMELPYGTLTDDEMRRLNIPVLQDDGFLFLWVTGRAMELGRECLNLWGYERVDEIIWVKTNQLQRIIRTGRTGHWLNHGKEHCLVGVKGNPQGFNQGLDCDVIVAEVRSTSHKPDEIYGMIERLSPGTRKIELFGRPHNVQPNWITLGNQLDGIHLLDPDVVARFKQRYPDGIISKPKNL
Chain of METTL3 (Q9HCE5 whole entry partner, looked up): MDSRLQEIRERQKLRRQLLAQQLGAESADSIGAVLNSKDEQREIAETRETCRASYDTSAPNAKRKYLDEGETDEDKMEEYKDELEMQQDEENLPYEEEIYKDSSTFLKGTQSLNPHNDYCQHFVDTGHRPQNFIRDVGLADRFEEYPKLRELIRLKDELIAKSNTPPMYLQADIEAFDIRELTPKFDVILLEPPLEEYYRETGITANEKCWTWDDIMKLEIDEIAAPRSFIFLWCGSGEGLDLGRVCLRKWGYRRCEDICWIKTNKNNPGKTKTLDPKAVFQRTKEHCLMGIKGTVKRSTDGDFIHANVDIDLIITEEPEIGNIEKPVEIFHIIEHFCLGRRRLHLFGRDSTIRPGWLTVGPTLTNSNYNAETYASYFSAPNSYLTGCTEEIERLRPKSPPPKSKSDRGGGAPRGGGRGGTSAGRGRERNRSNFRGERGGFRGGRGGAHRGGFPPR
Chain of METTL3/METTL14 (Q86U44 whole entry, looked up): as the sequence (Q86U44 whole entry, looked up) above
Chain of METTL3/METTL14 (Q9HCE5 whole entry partner, looked up): as the sequence (Q9HCE5 whole entry partner, looked up) above

With `CNc1cc(N2CCCC(O)(CNC(=O)c3ccc(CN4CCC(C)(C)CC4)cc3)C2)ncn1` (stereo not shown) [Compound 1], on METTL3, the “LE (ligand efficiency)” value was 0.21 kcal.mol^-1.heavy atom count^-1 and the “LLE (lipophilic ligand efficiency, pIC50-logP)” value is 2.5. The IC50 on METTL3 (TR-FRET assay) was 8.2 µM.
In the case of `CC1(C)CCN(Cc2ccc(C(=O)NC3CCN(c4cc(NCc5ccccc5)ncn4)CC3)cn2)CC1` [Compound 6], on METTL3, the “LE (ligand efficiency)” value was 0.20 kcal.mol^-1.heavy atom count^-1 and the “LLE (lipophilic ligand efficiency, pIC50-logP)” value was 1.7. Also, on METTL3 (TR-FRET assay), it took 3.6 µM to reach half-maximal inhibition (IC50).
Turning to `CC1(C)CCN(Cc2ccc(N3CCOC4(CCN(c5cc(NCc6ccccc6)ncn5)CC4)C3)cn2)CC1` [Compound 7, N-Benzyl-6-(4-(6-((4,4-dimethylpiperidin-1-yl)methyl)pyridin-3-yl)-1-oxa-4,9-diazaspiro[5.5]undecan-9-yl)pyrimidin-4-amine], the IC50 at METTL3 (setting [2]) and against METTL3 (TR-FRET assay) was 0.28 µM in each case.
As for `CC1(C)CCN(Cc2ccc(N3CC(=O)NC4(CCN(c5cc(NCc6ccccc6)ncn5)CC4)C3)cn2)CC1` [Compound 8, 9-(6-(Benzylamino)pyrimidin-4-yl)-4-(6-((4,4-dimethylpiperidin-1-yl)methyl)pyridin-3-yl)-1,4,9-triazaspiro[5.5]undecan-2-one], the IC50 against METTL3 (setting [2]) and on METTL3 (TR-FRET assay) was 0.037 µM throughout.
Consider `CC1(C)CCN(Cc2ccc(N3CC(=O)NC4(CCN(c5cc(NCc6ccccc6)ncn5)CC4)C3)cc2)CC1` [Compound 9, 9-(6-(Benzylamino)pyrimidin-4-yl)-4-(4-((4,4-dimethylpiperidin-1-yl)methyl)phenyl)-1,4,9-triazaspiro[5.5]undecan-2-one], for which the IC50 against METTL3 (setting [2]) and against METTL3 (TR-FRET assay) was 0.026 µM in each case.
In the series “Kinetic solubility”, `CNc1cc(N2CC3(CN(c4ccc(CN5CCC(C)(C)CC5)cc4)CC(=O)N3)C2)ncn1` [Compound 11, 8-(4-((4,4-Dimethylpiperidin-1-yl)methyl)phenyl)-2-(6-(methylamino)pyrimidin-4-yl)-2,5,8-triazaspiro[3.5]nonan-6-one] displayed a Kinetic solubility of 86 µM. Moreover, the “RLM t1/2” value in series [1] is given as 70 min. For the same compound, on METTL3, the “LE (ligand efficiency)” value was 0.26 kcal.mol^-1.heavy atom count^-1; the “LLE (lipophilic ligand efficiency, pIC50-logP)” value is given as 4.5; the “potency reduction / loss” value turned out to be 5 fold. It took 0.44 µM to reach half-maximal inhibition against METTL3 (setting [2]) (IC50). The 50% inhibitory concentration (IC50) against METTL3 (TR-FRET assay) turned out to be 0.44 µM.
With `CNc1cc(N2CCC3(CC2)CN(c2ccc(CN4CCC(C)(C)CC4)cc2)C(=O)N3)ncn1` [Compound 12], at METTL3, the “LE (ligand efficiency)” value is 0.23 kcal.mol^-1.heavy atom count^-1; the “LLE (lipophilic ligand efficiency, pIC50-logP)” value is 2.6; the “potency reduction / loss” value is 20 fold. The compound further registered an IC50 against METTL3 (TR-FRET assay) of 1.8 µM.
Consider `CN(C)c1cc(N2CCC3(CC2)CN(c2ccc(CN4CCC(C)(C)CC4)cc2)CC(=O)N3)ncn1` [Compound 14], for which, on METTL3, the “LE (ligand efficiency)” value is on record as 0.23 kcal.mol^-1.heavy atom count^-1 and the “LLE (lipophilic ligand efficiency, pIC50-logP)” value was 3.2. Also, on METTL3 (TR-FRET assay), the IC50 was 0.97 µM.
With `CC(C)Nc1cc(N2CCC3(CC2)CN(c2ccc(CN4CCC(C)(C)CC4)cc2)CC(=O)N3)ncn1` [Compound 15, 4-(4-((4,4-Dimethylpiperidin-1-yl)methyl)phenyl)-9-(6-(isopropylamino)pyrimidin-4-yl)-1,4,9-triazaspiro[5.5]undecan-2-one], on METTL3, the “LE (ligand efficiency)” value is 0.24 kcal.mol^-1.heavy atom count^-1 and the “LLE (lipophilic ligand efficiency, pIC50-logP)” value is recorded as 3.2. The compound further returned an IC50 at METTL3 (setting [2]) of 0.33 µM. At METTL3 (TR-FRET assay), this compound returned an IC50 of 0.33 µM.
As to `CC1(C)CCN(Cc2ccc(N3CC(=O)NC4(CCN(c5cc(NC6CC6)ncn5)CC4)C3)cc2)CC1` [Compound 16, 9-(6-(Cyclopropylamino)pyrimidin-4-yl)-4-(4-((4,4-dimethylpiperidin-1-yl)methyl)phenyl)-1,4,9-triazaspiro[5.5]undecan-2-one], the IC50 against METTL3 (setting [2]) and against METTL3 (TR-FRET assay) was 0.084 µM throughout.
Regarding `CC1(C)CCN(Cc2ccc(N3CC(=O)NC4(CCN(c5ncnc6[nH]ccc56)CC4)C3)cc2)CC1` [Compound 17, 4-(4-((4,4-Dimethylpiperidin-1-yl)methyl)phenyl)-9-(7H-pyrrolo[2,3-d]pyrimidin-4-yl)-1,4,9-triazaspiro[5.5]undecan-2-one], the IC50 against METTL3 (setting [2]) and on METTL3 (TR-FRET assay) was 0.061 µM each time.
With `CC1(C)CCN(Cc2ccc(N3CC(=O)NC4(CCN(c5ccnc6[nH]ccc56)CC4)C3)cc2)CC1` [Compound 18], on METTL3, the “LE (ligand efficiency)” value is on record as 0.20 kcal.mol^-1.heavy atom count^-1; the “LLE (lipophilic ligand efficiency, pIC50-logP)” value was 2.3; the “potency reduction / loss” value is on record as 74 fold. Further, the IC50 against METTL3 (TR-FRET assay) amounted to 4.5 µM.
Compound `CC1(C)CCN(Cc2ccc(N3CC(=O)NC4(CCN(c5nc(Cl)nc6[nH]ccc56)CC4)C3)cc2)CC1` [Compound 19, 9-(2-Chloro-7H-pyrrolo[2,3-d]pyrimidin-4-yl)-4-(4-((4,4-dimethylpiperidin-1-yl)methyl)phenyl)-1,4,9-triazaspiro[5.5]undecan-2-one] displayed a Kinetic solubility in the series “Kinetic solubility” of 45 µM. Moreover, in the series “Kinetic solubility” (kinetic from dmso stock), the solubility (kinetic) is 45 µM (≈ 23.5 µg/mL). Besides, in series [1], the “RLM t1/2” value is 32 min. Moreover, at METTL3, the “LE (ligand efficiency)” value is 0.28 kcal.mol^-1.heavy atom count^-1. Besides, the IC50 against METTL3 (setting [2]) and against METTL3 (TR-FRET assay) was 0.024 µM each time. Besides, the “LLE (lipophilic ligand efficiency, pIC50-logP)” value on METTL3 is recorded as 3.9. In the series “in vitro”, this compound yielded a half-life of 32 min.
For the compound `CNc1cc(N2CCC3(CC2)CN(c2ccc(CN4CCC(C)(C)CC4)cc2F)CC(=O)N3)ncn1` [Compound 20, 4-(4-((4,4-Dimethylpiperidin-1-yl)methyl)-2-fluorophenyl)-9-(6-(methylamino)pyrimidin-4-yl)-1,4,9-triazaspiro[5.5]undecan-2-one], the IC50 at METTL3 (setting [2]) and against METTL3 (TR-FRET assay) was 0.038 µM each time.
Consider `CNc1cc(N2CCC3(CC2)CN(c2ccc(CN4CCC(C)(C)CC4)c(F)c2)CC(=O)N3)ncn1` [Compound 21, 4-(4-((4,4-Dimethylpiperidin-1-yl)methyl)-3-fluorophenyl)-9-(6-(methylamino)pyrimidin-4-yl)-1,4,9-triazaspiro[5.5]undecan-2-one], for which the IC50 at METTL3 (setting [2]) and against METTL3 (TR-FRET assay) was 0.032 µM each time.
With `CNc1cc(N2CCC3(CC2)CN(c2cc(F)c(CN4CCC(C)(C)CC4)cc2F)CC(=O)N3)ncn1` [Compound 22, 4-(4-((4,4-Dimethylpiperidin-1-yl)methyl)-2,5-difluorophenyl)-9-(6-(methylamino)pyrimidin-4-yl)-1,4,9-triazaspiro[5.5]undecan-2-one], the ΔTm at 100 µM on METTL3/METTL14 was found to be 4.7 °C.
In the case of `Nc1ncnc2c1ncn2[C@@H]1O[C@H](CSCC[C@H](N)C(=O)O)[C@@H](O)[C@H]1O` [SAH, S-adenosyl-L-homocysteine, reference compound], on METTL3/METTL14, the ΔTm at 100 µM amounted to 2.8 °C.

The term IC50 denotes the concentration that inhibits the measured activity by half. Low readings indicate higher potency, high ones lower potency. What is called solubility (kinetic) is solubility judged after dilution from a stock solution rather than from solid. Usually half-life stands for how long it takes for the measured level to halve. A high value points to slow decline. Usually ΔTm stands for the shift of the melting midpoint relative to a reference.
